Data reported in paper PMC7824383, “Organic Solution Advanced Spray-Dried Microparticulate/Nanoparticulate Dry Powders of Lactomorphin for Respiratory Delivery: Physicochemical Characterization, In Vitro Aerosol Dispersion, and Cellular Studies” (Pharmaceutics, 2020).
In brackets after ≈: the same amount, converted by molar mass. Like-named read-outs stand apart in the source and are kept apart here. Square brackets hold non-standard residues; d marks the D form. Peptide text beside a SMILES is read from it. * marks the point of attachment. X1 = OC[C@H]1O[C@@H](O[C@H]2[C@H](O)[C@@H](O)[C@H](*)O[C@@H]2CO)[C@H](O)[C@@H](O)[C@H]1O

Tests used:
[1] = Equilibrium solubility by shake-flask method (SFM); assay type: physicochemical
Experimental: The solubility of the unionized form of raw (unprocessed) Lactomorphin was determined by the shake-flask method (SFM) using conditions similar to previously reported. For each reported solubility result, three independent SFM experiments were carried out in parallel in the following solvents (purified water, PBS, NS, methanol, and ethanol). For each experiment, the solid sample of Lactomorphin was added using a spatula to a specific volume of each solvent in closed, light-protected glass vials while shaking the vial until a heterogeneous system of the solid sample and the solvent was achieved. Samples were visually inspected to ensure that solid Lactomorphin was still in excess in each vial. The solution containing solid excess of the Lactomorphin was then capped and allowed to agitate using the shaker for 24 h at room temperature (25 °C). The presence of precipitation was checked after several hours. If dissolution was complete, more solid Lactomorphin was added to the vial.
The pH values of Lactomorphin ampholyte suspensions were adjusted to the isoelectric point to determine the solubilities of the zwitterionic species point and to assure the predominant presence of the unionized form of Lactomorphin. The pH of each Lactomorphin suspension in each solvent (except in methanol and ethanol, which were just measured) was adjusted by using 0.1 M NaOH/0.1 M HCl to a value of 8.5. The pH values for all vials were checked after saturation, several hours after the shaking process started, and after equilibrium was achieved. Separating saturated solution and precipitate by sedimentation was performed, which is more accurate than filtration since the filtration step is labor-intensive and tedious, it has been a known issue that drug loss can occur through membrane absorption during filtration in the SFM [32]. Aliquots of supernatant were then taken out with a micropipette from all saturated solutions and diluted with each corresponding solvent. Analytical HPLC measured the concentration of Lactomorphin in each aliquot in against freshly prepared calibration curves. As mentioned above, three independent SFMs were made for each reported result. Thus, the reported results were the mean of three measured concentrations and the standard deviation of the mean (n = 3, mean ± Standard deviation).
The HPLC system was LC-2010HT next generation HPLC (SHIMADZU Tokyo, Japan), comprised of a degassing unit, low-pressure gradient unit, pump unit, mixer, ultra-fast autosampler, column oven, and a UV-VIS detector with a thermostatted flow cell. System. The analysis was performed by a reverse phase HPLC assay, using Phenomenex Prodigy 5 um ODS (3) 250 × 4.6 mm HPLC Column. Ultraviolet detection was done at 280 nm. Mobile phase conditions were gradient of acetonitrile (CH3CN) in water (H2O) with 0.1% trifluoroacetic acid (F3CCOOH) at a 1 mL/min flow rate. The injection volume was 20 μL; the retention time for Lactomorphin was ~8.5 min. Quantification was determined using peak area and calculated from a nine-point standard curve; standard curve points were prepared by dilution in water.

[2] = Partition coefficient (LogP) by shake-flask, 1-octanol/water; assay type: physicochemical; details: shake-flask 1-octanol/water (equal volumes, water saturated with octanol), 1 mg/mL, pH 8.5, shaken 24 h then 24 h standing, HPLC-UV 280 nm, mean ± SD, n = 3
Experimental: Lipophilicity is a critical physicochemical property that affects ADMET (absorption, distribution, metabolism, excretion, and toxicity). SFM is the most known lipophilicity measurement method, which is based on liquid-liquid extraction using the n-octanol/water system. The partition coefficient of Lactomorphin was measured at the room, and physiological temperatures via SFM using conditions similar to previously reported. The Lactomorphin powder was dispensed into two individual glass vials containing equal volumes of 1-octanol and water to achieve a 1 mg/mL concentration. The water solution in each vial was saturated with octanol before analysis. The pH was measured and fixed to 8.5 value to assure the predominant presence of the unionized form of Lactomorphin. The pH stability in both vials was regularly checked throughout the experiment. The first vial was shaken for 24 h at room temperature. The other one was shaken for 24 h while kept in an incubator at 37 °C. After 24 h, the vials shaking was stopped. […] A sample from each layer was carefully withdrawn and analyzed by the analytical HPLC to measure the concentration of Lactomorphin in each layer then calculate the Partition coefficient (P) and logP using the following equations:(4) P =[neutral solute]oct/[neutral solute]Aq (5) LogP=log10[neutral solute]oct/[neutral solute]Aq […]

[3] = Thermal degradation study of solid-state Lactomorphin; assay type: physicochemical; details: n = 3
Description: Forced degradation is a degradation of new drug substances at conditions more severe than accelerated conditions. The FDA and ICH guidance estate the requirement of stability testing data to understand how the quality of drug changes with time under various environmental conditions. Thermal, hydrolysis, oxidation, and photodegradation are commonly used stress study conditions. Knowledge of a molecule’s stability helps select proper formulation and provide adequate storage conditions and shelf life, which is essential for regulatory documentation. As the temperature is one of the most vital factors that affect the stability of a drug material more than the other conditions, in this study, we performed thermal degradation by exposing samples of solid-state Lactomorphin to dry and wet heat.
Samples preparation were done by weighing 25 mg of Lactomorphin, transfer it into a 25 mL volumetric flask, and add 25 mL of water and shake so all the quantity dissolved. Using a calibrated micropipette, transfer 0.20 mL of this 1 mg/mL Lactomorphin stock solution into around 90 (2 mL) glass vials. Freeze-dry all vials so that all vials have accurately 0.2 mg of Lactomorphin after lyophilization. A saturated salt solution of NaCl to achieve about 75% Relative Humidity (RH) and saturated salt solution of P2O5 to reach about 0.00% RH were prepared. Thirty vials contain 0.2 mg of Lactomorphin were kept inside a separate desiccator (tightly closed 20 mL glass vial with saturated NaCl). Another set of 30 vials were kept inside the desiccator (tightly closed 20 mL glass vial with saturated P2O5). All were put in oven fixed at 62 °C temperature. To achieve equal distribution of heat inside the oven for all samples used for the degradation study, they were placed in a metallic block made, especially for this study. The rest of the vials were kept in a desiccator at −80 °C to be used as comparison(control) samples.
According to the regulatory guidelines, there is no specific concentration used for the degradation study; however, 1 mg/mL concentration is recommended. This study used three concentrations by dissolving the stability samples in 0.2 mL, 0.4 mL, and 2 mL water to achieve 1000 μg/mL, 500 μg/mL, and 100 μg/mL concentration, respectively. Analysis of the stability samples was performed every time against a freshly prepared calibration curve and comparison samples (control samples that freshly prepared and injected directly without being exposed to the force degradation conditions) at the following periods: 0.00, 0.08, 0.17, 1, 2, 4, 10, 20, 45, 94 and 133 days. All experiments at each time point and different stability conditions were done in triplicate (n = 3). The HPLC system consisted of a VARIAN ProStar model 330 PDA Detector coupled with a VARIAN ProStar Solvent delivery module and VARIAN ProStar model 430 auto-sampler. The analysis was performed by a reverse phase HPLC assay, using Inspire™ 5 μm C18, 250 × 4.6 mm HPLC Column. Ultraviolet detection was done at 280, 254 and 220 nm, but the quantitation was done at 280 nm only. Mobile phase conditions were gradient according to the above program in Section 2.2.13 and at a flow rate of 1.00 mL/min.

[4] = tested on: Normal Human Astrocytes (NHA); assay: Resazurin cell viability assay, NHA; details: NHA cells, 48 h exposure, 0.1, 1, 10 and 1000 µg/mL, resazurin fluorescence; p > 0.05
[5] = tested on: H441 lung adenocarcinoma cells; assay: Resazurin cell viability assay, H441; details: 48 h exposure, 0.1, 1, 10 and 1000 µg/mL, resazurin fluorescence, p > 0.05
[6] = tested on: hCMEC/D3 human cerebral microvascular endothelial cells; assay: Resazurin cell viability assay, hCMEC/D3; details: 48 h exposure, 0.1, 1, 10 and 1000 µg/mL, resazurin fluorescence, p > 0.05
[7] = tested on: RPMI 2650 human nasal epithelial cells; assay: Resazurin cell viability assay, RPMI 2650; details: RPMI2650 cells, 48 h exposure, 0.1, 1, 10 and 1000 µg/mL, resazurin fluorescence 544/590 nm; p > 0.05
[8] = Residual water content by Karl Fischer titration; assay type: physicochemical; details: Karl Fischer coulometric titration, 1–2 mg in anhydrous methanol; mean ± SD, n = 3
Experimental: Using conditions similar to previously reported, the residual water content of all powders was quantified by Karl Fischer titration (KFT) […] using a TitroLine® 7500 trace titrator (SI Analytics, Mainz, Germany). Around 1–2 mg of sample was dissolved in 0.5 mL AQUA STAR anhydrous methanol. The sample solution was injected into a reaction cell filled with Hydranal®Coulomat AD reagent; then, a simple calculation obtained the sample’s water content. All experiments were done in triplicate (n = 3).

Structure (SMILES): CC(C)C[C@H](NC(=O)[C@H](Cc1ccccc1)NC(=O)CNC(=O)[C@H](NC(=O)[C@@H](N)Cc1ccc(O)cc1)[C@H](C)O)C(=O)N[C@@H](CO[C@@H]1O[C@H](CO)[C@@H](O[C@@H]2O[C@H](CO)[C@H](O)[C@H](O)[C@H]2O)[C@H](O)[C@H]1O)C(N)=O [Lactomorphin, H2N-Tyr-D-Thr- Gly-Phe-Leu-Ser-(O-β-Lactoside)-CONH2] (H-Y[dT]GFLS(X1)-NH2)
- Solubility (USP) Definition, PBS ([1]; PBS, pH 8.50 (adjusted), 25 °C): Freely soluble (Fs) (all these solubility values fell in the range of 100–1000 mg/mL, which is the freely soluble category)
- solubility thermodynamic at 24 h ([1]; aqueous buffer, thermodynamic from solid, water, NS and PBS, shake-flask, pH 8.5, 25 °C, read-out: aqueous solubility): > 100 mg/mL
- Solubility (USP) Definition, Ethanol ([1]; ethanol, pH 7.30 (measured), 25 °C): Sparingly soluble (sps)
- Calculated Log S, NS ([1]; from experimental solubility, footnote: S in mMoleunit, NS, pH 8.50): −0.9
- Calculated Log S, PBS ([1]; from experimental solubility, footnote: S in mMoleunit, PBS, pH 8.50): −0.3
- Calculated Log S, Ethanol ([1]; from experimental solubility, footnote: S in mMoleunit, ethanol): −1.7
- Calculated Log S, Methanol ([1]; from experimental solubility, footnote: S in mMoleunit, methanol): −1.3
- Calculated Log S, Water ([1]; from experimental solubility, footnote: S in mMoleunit, water, pH 8.50): −0.6
- Solubility (USP) Definition, Methanol ([1]; methanol, pH 7.27 (measured), 25 °C): Soluble (s)
- solubility thermodynamic at 24 h ([1]; normal saline (NS), pH 8.5, saline or isotonic, thermodynamic from solid, thermodynamic shake-flask, excess solid, normal saline, pH 8.50 (adjusted), shaken 24 h, 25 °C, HPLC-UV 280 nm, mean ± SD, n = 3, read-out: Solubility in NS): 140.4 ± 0.32 mg/mL (≈ 139 mM)
- Solubility (USP) Definition, NS ([1]; normal saline, pH 8.50 (adjusted), 25 °C): Freely soluble (Fs) (all these solubility values fell in the range of 100–1000 mg/mL, which is the freely soluble category)
- solubility thermodynamic at 24 h ([1]; pH 8.5, aqueous buffer, thermodynamic from solid, thermodynamic shake-flask, excess solid, PBS, pH 8.50 (adjusted), shaken 24 h, 25 °C, HPLC-UV 280 nm, mean ± SD, n = 3, read-out: Solubility in PBS): 570.3 ± 2 mg/mL (≈ 565 mM)
- solubility thermodynamic at 24 h ([1]; pH 8.5, thermodynamic from solid, thermodynamic shake-flask, excess solid raw Lactomorphin, purified water, pH 8.50 (adjusted with 0.1 M NaOH/HCl), shaken 24 h, 25 °C, sedimentation, HPLC-UV 280 nm, mean ± SD, n = 3, read-out: Solubility in Water): 267 ± 6 mg/mL (≈ 264 mM)
- Solubility in Ethanol ([1]; thermodynamic shake-flask, excess solid, ethanol, pH 7.30 (measured), shaken 24 h, 25 °C, HPLC-UV 280 nm, mean ± SD, n = 3): 18.00 ± 0.00 mg/mL (≈ 17.8 mM)
- Solubility in Methanol ([1]; thermodynamic shake-flask, excess solid, methanol, pH 7.27 (measured), shaken 24 h, 25 °C, HPLC-UV 280 nm, mean ± SD, n = 3): 45.67 ± 1.00 mg/mL (≈ 45.2 mM)
- Solubility (USP) Definition, Water ([1]; water, pH 8.50 (adjusted), 25 °C): Freely soluble (Fs) (all these solubility values fell in the range of 100–1000 mg/mL, which is the freely soluble category)
- Experimental LogP at Room Temperature (25 °C) ([2]; 25 °C): −2.40 ± 0.00
- Experimental LogP at Physiological Temperature (37 °C) ([2]; 37 °C): −2.33 ± 0.02
- Lactomorphin stability% (remaining%) ([3]; solid (lyophilised 0.2 mg), 62 °C / 75% RH, 2 hrs, reconstituted in water to 100, 500, 1000 μg/mL, HPLC-UV 280 nm vs fresh controls): 59%
- Lactomorphin stability% (remaining%) ([3]; solid, 62 °C / 75% RH, 4 hrs, reconstituted 100, 500, 1000 μg/mL, HPLC-UV 280 nm): 29%
- Lactomorphin stability% (remaining%) ([3]; solid, 62 °C / 75% RH, 24 h, reconstituted 100, 500, 1000 μg/mL, HPLC-UV 280 nm): 6%
- Lactomorphin stability% (remaining%) ([3]; solid, 62 °C / RH 0.00%, 10 days, HPLC-UV 280 nm): around 60%
- Lactomorphin stability% (remaining%) ([3]; solid, 62 °C / RH 0.00%, day 94, HPLC-UV 280 nm): ~ 10%
- Lactomorphin stability% (remaining%) ([3]; solid, 62 °C / RH 0.00%, day 133, HPLC-UV 280 nm): ~ 10%
- Lactomorphin stability% (remaining%) ([3]; solid, 62 °C / RH 0.00%, up to day 45, HPLC-UV 280 nm): around 60%
- relative cell viability% vs control [4]: no statistically significant difference
- relative cell viability% vs control [5]: no statistically significant difference
- relative cell viability% vs control [6]: no statistically significant difference
- relative cell viability% vs control [7]: no statistically significant difference

Structure (SMILES): OC[C@H]1O[C@H](O[C@H]2O[C@H](CO)[C@@H](O)[C@H](O)[C@H]2O)[C@H](O)[C@@H](O)[C@@H]1O [Raw Trehalose, D (+)-Trehalose dihydrate]
- Water % (w/w) [8]: 8.11 ± 1.96 % (w/w)
